A short description of data set [1]: Metabolic stability in human liver microsomes (Biological Example 2). In kind it is in vitro ADME. The settings on record: hepatic clearance (CLhep) scaled from human liver microsomes, 1 μM, well-stirred model. The procedure: Metabolic stability of select compounds was evaluated in human liver microsomes (from Corning or XenoTech, LLC) using a 96-well plate assay format. Compounds were incubated at 37° C. at 1 μM final concentration in the microsomal matrix (0.5 mg/mL total protein) in the presence or absence of NADPH cofactor. An NADPH regenerating system, comprised of NADP, MgCl2, isocitric acid, and isocitrate dehydrogenase, was used in the assay. Enzymatic reactions were conducted for 0, 5, 10, 20, 30, or 60 min before termination by addition of acetonitrile containing tolbutamide and labetalol internal standards (100 ng/mL). After shaking for 10 min, plates were subjected to centrifugation (4000 rpm at 4° C.) for 20 min and supernatants mixed 1:3 with HPLC grade water. Samples were analyzed by LC-MS/MS using appropriate MRM transitions for each analyte and internal standard (IS). Analyte/IS peak area ratios were used to determine percent compound remaining at each time point. Intrinsic clearance (Clint; expressed as mL·min^−1·mg^−1) was calculated from the first order elimination constant (k, min^−1) of test article decay and the volume of the incubation. These values were scaled to intrinsic organ clearance (Clint) using human specific scaling factors (48.8 mg microsomal protein per g liver; 25.7 g liver per kg body weight). Organ Clint was subsequently converted to hepatic clearance, HLM, (CLhep, mL·min-1·kg-1) using the well-stirred model of hepatic elimination, where Qh is human hepatic blood flow (20.7 mL·min-1·kg-1).
CLhep is the projected human clearance in the liver based on the above in vitro assay. A lower value is indicative of less compound being removed by the liver.
On the technique in general: Liver microsomes are vesicles of endoplasmic reticulum, rich in cytochrome P450 enzymes.

For data set [2], the target named is T1, FLAG-tagged human LRRK2 with G2019S mutation (Homo sapiens, UniProt Q5S007, G2019S).
T1 construct: expressed in transfected cells; host or cells: HEK293 / 293T cells, transient transfection with pCMV-FLAG-G2019S
Nature of the data set: Inhibition of pSer935 in HEK293 cells with expressed G2019S LRRK2 (Biological Example 4). In kind it is cell-based. The settings on record: transfected 293T cells, 90 minutes compound treatment, MSD readout; read-out: HEK293T LRRK2 G2019S pS935. The procedure:
In this assay, inhibition of phosphorylation of LRRK2 at residue serine 935 (pS935) by test compound was determined in HEK293 cells.
HEK293 cells were first transiently transfected with a plasmid harboring FLAG-tagged human LRRK2 cDNA with G2019S mutation (p.G2019S) under the control of CMV promoter for robust overexpression. The levels of phosphorylated Ser935 in G2019S expressing cells with or without compound treatment were measured by MSD using an anti-FLAG capture antibody and a phosho-specific anti-LRRK2 pS935 monoclonal detection antibody. The IC50 was determined by fitting a 10-point dose response data in duplicate with four parameter non-linear regression curve.
(Day 1) 293T cell seeding: 293T cells were seeded (1.4×10^6/well) into each well of a 6-well plate. After two days in culture, the cell number can grow into 5×10^6/well, so N+1 wells were seeded (enough for N 96 well assay plates).
(Day 2) 293T cell transfection: 5 μL of pCMV-FLAG-G2019S or pCMV-FLAG-WT LRRK2 (0.5 μg/μL) was added into 145 μL of DMEM medium, and mixed thoroughly by pipette up and down several times. 15 μL of SuperFect Transfection Reagent was added into samples, mixed thoroughly by pipetting up and down several times, and allowed to equilibrate at room temperature for 5-10 minutes. 0.5 mL of pre-warmed cell culture medium was added into samples, and mixed thoroughly by pipetting up and down several times. 650 μL of the mixture was added dropwise into each well of the 6 well plate, the plate was swirled to mix thoroughly, and incubated in a 37° C. incubator with a humidified atmosphere of 5% CO2 for 20-24 hours.
(Day 3) 293T cells seed into 96 well plates: Cells were harvested and resuspended in cell culture medium at 0.96×10^6 cells/mL density. 50 μL/well cells were plated onto 96-well cell culture plate (48,000 cells/well), and the plates were incubated in a 37° C. incubator with a humidified atmosphere of 5% CO2 for 20-24 hours.
(Day 4) Inhibitor Treatment and Cell Lysis: The compound destination plates were thawed at room temperature and centrifuged at 2000 rpm. 55 μL cell culture medium was added into compound destination plate, and the plate was warmed at 37° C.
50 μL of cell culture medium containing compounds was transferred into cell culture plate. Plates were incubated in a 37° C. incubator with a humidified atmosphere of 5% CO2 for 90 minutes, after which all of compound-containing medium was completely aspirated manually with 300 μL pipette. 100 μL/well of Lysis Buffer was added and the plates sealed, shaken at 4° C. for 30 minutes, and stored at −20° C. until usage.
(Day 5) MSD procedure: 2 μg/25 μL/well of FLAG antibody diluted in PBS was added into the MSD plate, incubated for two hours at room temperature or overnight at 4° C. (in Day 4). 50 μL (3.9 μg/μL) of FLAG antibody plus 2.5 mL PBS, per 96 well plate, or 50 μL (3.9 μg/μL) anti-FLAG antibody plus 5 mL PBS per 384 well plate. The plates were centrifuged at 1000 rpm for 10 seconds and shaken with a plate shaker for 10 seconds.
Anti-FLAG antibody was discarded, and the wells were washed using multidrop, low speed, two times with 300 μL/well of wash buffer for a 96 well plate or three times with 70 μL/well of wash buffer for a 384 well plate. 50 μL/well of block buffer for a 96 well plate, or 25 μL/well of block buffer for a 384 well plate, was added and the plates were incubated for two hours at room temperature. The Block buffer was then discarded and the wells washed two times using multidrop, low speed, with 300 μL/well of wash buffer for a 96 well plate, or three times with 70 μL/well of wash buffer for a 384 well plate.
25 μL of cell lysate was transferred into a 96 well MSD plate, or 12.5 μL of cell lysate into 384 well MSD plate, and the plates were incubated for one hour at room temperature.
Note: The cell lysate should be thawed one hour prior to this step, the plate centrifuged at 1000 rpm for one minute, shaken for 30 seconds, and then unsealed for lysate transfer. […]

These results are taken from patent US12358896B2, “LRRK2 inhibitors and methods of making and using thereof” (DENALI THERAPEUTICS INC., priority 2019, dated 2025).

Molecules are shown by their SMILES.

T1 sequence (Q5S007 whole entry G2019S): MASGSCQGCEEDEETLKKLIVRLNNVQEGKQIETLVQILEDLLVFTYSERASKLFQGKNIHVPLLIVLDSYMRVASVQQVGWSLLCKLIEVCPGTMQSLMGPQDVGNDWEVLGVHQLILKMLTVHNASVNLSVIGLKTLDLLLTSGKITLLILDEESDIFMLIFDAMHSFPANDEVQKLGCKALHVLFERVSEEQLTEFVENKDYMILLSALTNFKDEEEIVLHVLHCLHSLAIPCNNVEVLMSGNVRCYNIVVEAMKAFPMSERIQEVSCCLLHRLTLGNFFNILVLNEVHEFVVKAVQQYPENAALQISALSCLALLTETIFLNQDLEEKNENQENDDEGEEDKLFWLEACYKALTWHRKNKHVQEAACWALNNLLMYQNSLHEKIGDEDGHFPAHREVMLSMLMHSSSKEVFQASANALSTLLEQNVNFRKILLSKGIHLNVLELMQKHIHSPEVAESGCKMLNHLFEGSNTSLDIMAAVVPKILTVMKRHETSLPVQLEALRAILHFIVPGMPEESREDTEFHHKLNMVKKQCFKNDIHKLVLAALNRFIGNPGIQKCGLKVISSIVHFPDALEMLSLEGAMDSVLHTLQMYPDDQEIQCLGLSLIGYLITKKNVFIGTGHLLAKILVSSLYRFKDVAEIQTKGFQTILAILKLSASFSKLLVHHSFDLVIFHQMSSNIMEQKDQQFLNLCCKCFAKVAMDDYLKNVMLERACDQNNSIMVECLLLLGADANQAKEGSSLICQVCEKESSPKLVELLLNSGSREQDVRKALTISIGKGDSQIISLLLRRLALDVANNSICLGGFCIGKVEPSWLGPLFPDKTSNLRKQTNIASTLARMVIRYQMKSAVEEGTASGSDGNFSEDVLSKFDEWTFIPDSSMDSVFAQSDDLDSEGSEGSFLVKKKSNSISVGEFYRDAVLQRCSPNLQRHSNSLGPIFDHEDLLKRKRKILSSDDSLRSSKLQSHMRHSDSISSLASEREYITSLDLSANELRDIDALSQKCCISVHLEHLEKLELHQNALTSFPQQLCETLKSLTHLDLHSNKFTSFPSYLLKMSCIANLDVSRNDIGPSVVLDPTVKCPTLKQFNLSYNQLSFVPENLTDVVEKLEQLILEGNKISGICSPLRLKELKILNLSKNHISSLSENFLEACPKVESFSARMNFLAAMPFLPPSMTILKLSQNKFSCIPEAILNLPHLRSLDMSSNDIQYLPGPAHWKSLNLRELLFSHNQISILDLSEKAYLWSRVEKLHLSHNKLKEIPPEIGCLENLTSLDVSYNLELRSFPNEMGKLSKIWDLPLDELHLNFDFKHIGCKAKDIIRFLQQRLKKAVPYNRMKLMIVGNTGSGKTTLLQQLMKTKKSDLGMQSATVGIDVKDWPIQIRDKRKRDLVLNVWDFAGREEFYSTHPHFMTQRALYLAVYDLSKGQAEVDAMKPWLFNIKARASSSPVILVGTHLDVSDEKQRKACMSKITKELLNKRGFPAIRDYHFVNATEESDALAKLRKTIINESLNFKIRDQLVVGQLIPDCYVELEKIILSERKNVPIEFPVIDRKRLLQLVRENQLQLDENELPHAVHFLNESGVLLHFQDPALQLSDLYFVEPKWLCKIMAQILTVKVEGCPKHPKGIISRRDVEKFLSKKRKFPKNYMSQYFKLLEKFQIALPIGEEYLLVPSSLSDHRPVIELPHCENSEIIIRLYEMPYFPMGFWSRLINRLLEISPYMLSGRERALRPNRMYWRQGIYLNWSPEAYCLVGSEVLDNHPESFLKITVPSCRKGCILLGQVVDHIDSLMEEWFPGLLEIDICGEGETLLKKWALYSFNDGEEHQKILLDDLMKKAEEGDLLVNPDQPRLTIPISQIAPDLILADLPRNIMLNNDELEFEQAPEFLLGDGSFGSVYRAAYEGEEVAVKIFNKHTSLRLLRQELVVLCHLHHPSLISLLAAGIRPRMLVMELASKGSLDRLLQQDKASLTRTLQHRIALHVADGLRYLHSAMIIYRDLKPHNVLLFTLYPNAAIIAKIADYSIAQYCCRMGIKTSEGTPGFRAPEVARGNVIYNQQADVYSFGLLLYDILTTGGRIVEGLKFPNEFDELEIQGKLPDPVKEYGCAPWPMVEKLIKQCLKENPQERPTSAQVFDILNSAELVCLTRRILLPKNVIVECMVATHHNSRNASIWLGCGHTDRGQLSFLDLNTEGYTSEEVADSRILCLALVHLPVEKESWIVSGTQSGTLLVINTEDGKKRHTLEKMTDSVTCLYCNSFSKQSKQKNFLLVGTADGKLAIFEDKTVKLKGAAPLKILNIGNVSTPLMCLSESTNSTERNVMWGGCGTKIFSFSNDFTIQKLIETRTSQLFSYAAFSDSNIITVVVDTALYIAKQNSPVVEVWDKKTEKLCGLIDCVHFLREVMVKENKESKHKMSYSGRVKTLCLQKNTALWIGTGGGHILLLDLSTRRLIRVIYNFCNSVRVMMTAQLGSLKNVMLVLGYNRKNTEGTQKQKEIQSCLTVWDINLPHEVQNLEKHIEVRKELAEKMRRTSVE

For the compound `CCNc1nc(Nc2cn([C@H]3C[C@H]3C(N)=O)nc2C2CC2)ncc1C(F)(F)F` (single isomer, unassigned) [Example 7, (1,2-cis)-2-(3-cyclopropyl-4-((4-(ethylamino)-5-(trifluoromethyl)pyrimidin-2-yl)amino)-1H-pyrazol-1-yl)cyclopropanecarboxamide], in data set [1], the “HLM Avg” value was found to be 3.6 mL/min/kg. Besides, the IC50 in data set [2] stood at 1.83 nM.
As to `CCNc1nc(Nc2cc([C@H]3C[C@H]3C(N)=O)nn2C2CC2)ncc1C(F)(F)F` [Comparative Example A, reference compound], the “HLM Avg” value in data set [1] is 2.6 mL/min/kg. The IC50 in data set [2] is 11.8 nM.
